Reference: ChEMBL document CHEMBL5550205, “Discovery of a NCOA4 Degrader for Labile Iron-Dependent Ferroptosis Inhibition” (J Med Chem, 2024)
Activity calls are given as the source filed them. The rule behind the calls is not given here. Residues, ends and D or L forms follow the SMILES beside them. *: point of attachment. Cbz = O=C(OCc1ccccc1)*

Molecular target: von Hippel-Lindau disease tumor suppressor/Nuclear receptor coactivator 4 (Homo sapiens, UniProt P40337+Q13772)
Assay: PROTAC activity at NCOA4/VHL in human HeLa cells assessed as induction of NCOA4 degradation at 4 uM measured for 24 hrs by immunoprecipitation analysis
Assay type: cell-based

Chain of von Hippel-Lindau disease tumor suppressor/Nuclear receptor coactivator 4 (P40337 whole entry, looked up): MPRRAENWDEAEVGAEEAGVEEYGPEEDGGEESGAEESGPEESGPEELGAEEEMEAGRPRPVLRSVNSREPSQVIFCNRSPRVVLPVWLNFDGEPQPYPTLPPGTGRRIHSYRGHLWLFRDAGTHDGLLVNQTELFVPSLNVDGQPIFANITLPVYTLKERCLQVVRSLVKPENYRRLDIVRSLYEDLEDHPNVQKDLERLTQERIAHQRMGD
Chain of von Hippel-Lindau disease tumor suppressor/Nuclear receptor coactivator 4 (Q13772 whole entry, looked up): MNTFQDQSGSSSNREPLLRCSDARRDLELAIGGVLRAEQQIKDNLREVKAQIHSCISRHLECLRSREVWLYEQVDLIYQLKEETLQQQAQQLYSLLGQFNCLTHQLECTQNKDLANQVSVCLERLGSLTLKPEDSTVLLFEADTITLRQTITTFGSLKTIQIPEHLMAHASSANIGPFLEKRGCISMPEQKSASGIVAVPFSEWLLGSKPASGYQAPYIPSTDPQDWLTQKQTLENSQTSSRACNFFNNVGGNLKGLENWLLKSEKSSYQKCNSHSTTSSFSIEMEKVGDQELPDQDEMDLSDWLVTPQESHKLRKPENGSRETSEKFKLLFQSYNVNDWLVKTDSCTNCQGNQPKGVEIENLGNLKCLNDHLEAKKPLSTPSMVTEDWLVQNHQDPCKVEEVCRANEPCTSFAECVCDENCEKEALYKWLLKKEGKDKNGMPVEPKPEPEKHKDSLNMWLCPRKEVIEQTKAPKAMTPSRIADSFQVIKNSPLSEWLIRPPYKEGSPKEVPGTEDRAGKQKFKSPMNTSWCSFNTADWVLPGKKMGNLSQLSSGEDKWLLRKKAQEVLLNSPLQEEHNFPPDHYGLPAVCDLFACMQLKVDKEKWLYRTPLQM

Activity: Active
SMILES: CC(C)C[C@@H](C=O)NC(=O)[C@H](CC(C)C)NC(=O)[C@H](CC(C)C)NC(=O)OCc1ccccc1 (Cbz-Leu-Leu-Leu-aldehyde)
